The source of these data is patent US7662813B2, “Triazole compounds that modulate HSP90 activity” (Synta Pharmaceuticals Corp., priority 2005, dated 2010).

In experiment [1] the test system is c-kit. The experiment in a line: FACS-based c-kit degradation assay in Kasumi-1 cells. The class given is cell-based. As to conditions: about 18 h. Here is the method:
Leukemia cell line, Kasumi-1, was used for testing c-kit degradation induced by Hsp90 inhibitors of the invention. The cells (3×10^5 per well) were treated with 17AAG (0.5 μM) or Compound 11 (0.05 μM or 0.5 μM) for about 18 h. The cells were collected and centrifuged (SORVALL RT 6000D) at 1200 rpm for 5 min. The supernatants were discarded, and the cells were washed one time with 1×PBS. After centrifugation the cells were stained with FITC conjugated c-kit antibody (MBL International, Cat# K0105-4) in […] 1×PBS at 4° C. for 1 h. The samples were read and analyzed with FACSCalibur flow cytometer (Becton Dicknson).

Experiment [2] has as its system c-kit. The experiment in a line: Western blot analysis of c-Kit in Kasumi-1 cells. The class given is cell-based. The procedure: The results of the FACS analysis were confirmed with Western blot analysis (see FIG. 2). […] In contrast, 17-AAG had no effect of c-Kit protein levels at either 100 nM or 400 nM.
On the technique in general: A western blot detects proteins with antibodies after separation by electrophoresis.

Another experiment relates to Her2. The experiment in a line: Degradation of Her2 in BT-474 cells (Method 1, Western blot). In kind it is cell-based, human. The conditions noted are these: 0.5 μM, overnight. The procedure:
Human high-Her2 breast carcinoma BT474 (HTB-20), SK-BR-3 (HTB-30) and MCF-7 breast carcinoma (HTB-22) from American Type Culture Collection, VA, USA were grown in Dulbecco's modified Eagle's medium with 4 mM L-glutamine and antibiotics (100 IU/ml penicillin and 100 ug/ml streptomycine; GibcoBRL). To obtain exponential cell growth, cells were trypsinized, counted and seeded at a cell density of 0.5×10^6 cells /ml regularly, every 3 days. All experiments were performed on day 1 after cell passage.
BT-474 cells are treated with 0.5 μM, 2 μM, or 5 μM of 17AAG (a positive control) or 0.5 μM, 2 μAM, or 5 μM of a compound of the invention overnight in DMEM medium. After treatment, each cytoplasmic sample is prepared from 1×10^6 cells by incubation of cell lysis buffer (#9803, cell Signaling Technology) on ice for 10 minutes. The resulting supernatant used as the cytosol fractions is dissolved with sample buffer for SDS-PAGE and run on a SDS-PAGE gel, blotted onto a nitrocellulose membrane by using semi-dry transfer. Non-specific binding to nitrocellulose is blocked with 5% skim milk in TBS with 0.5% Tween at room temperature for 1 hour, then probed with anti-Her2/ErB2 mAb (rabbit IgG, #2242, Cell Signaling) and anti-Tubulin (T9026, Sigmna) as housekeeping control protein. […]

On to `CCCN(C)c1cc(-n2c(S)nnc2-c2cc(C(C)C)c(O)cc2O)ccc1OC` [Compound 11, 4-(4-(3-(N-methyl-N-propylamino)-4-methoxyphenyl)-5-mercapto-4H-1,2,4-triazol-3-yl)-6-isopropylbenzene-1,3-diol], for which the “c-kit degradation (FACS)” value in the experiment on c-kit [1] (0.05 μM) and in the experiment on c-kit [1] (0.5 μM) was “induced c-kit degradation” throughout. Also, the “Degradation of c-Kit (Western blot)” value with c-kit [2] (100 nM) and with c-kit [2] (400 nM) was “induced the degradation of c-Kit” throughout.

Regarding `CCN(C)c1cc(-n2c(S)nnc2-c2cc(C(C)C)c(O)cc2O)ccc1OC` [Compound 12, 4-(4-(3-(N-methyl-N-ethylamino)-4-methoxy-phenyl)-5-mercapto-4H-1,2,4-triazol-3-yl)-6-isopropylbenzene-1,3-diol], the “Degradation of c-Kit (Western blot)” value in the experiment on c-kit [2] (100 nM) and in the experiment on c-kit [2] (400 nM) was “induced the degradation of c-Kit” throughout.

Consider `C=CCNC1=C2C[C@@H](C)C[C@H](OC)[C@H](O)[C@@H](C)/C=C(\C)[C@H](OC(N)=O)[C@@H](OC)/C=C\C=C(/C)C(=O)NC(=CC1=O)C2=O` [Compound 17AAG, reference compound], for which the “c-kit degradation (FACS)” value in the experiment with c-kit [1] (0.5 μM) is “could not induce c-kit degradation”. Moreover, the “Degradation of c-Kit (Western blot)” value with c-kit [2] (100 nM) and in the experiment with c-kit [2] (400 nM) was “no effect” in each case. Also, the “Degradation of Her2” value in the experiment with Her2 is on record as “partial degradation of Her2”.
